No end group written: not given here.
Experiments:
[1] = test system: mouse model of hind limb ischemia; experiment: Vybrant phagocytosis assay in harvested microgels and surrounding tissue; format: in vivo, A/J mice; conditions: peptide-loaded microgels, day 14
From the text: Mouse model of hind limb ischemia: Wild type A/J mice were used to develop a model of PAD as described previously, by ligating the femoral artery and vein at one ligation below the epigastric artery and a second ligation around the artery and vein at a distal location just proximal to the deep femoral branch. The femoral artery and vein were then cut between these two sutures. […] In order to control the hydrogel size considering the possibility that the hydrogel size may change peptide release and therefore inflammatory responses a single, 10 mL bulk injection or ten, 1 mL injections of peptide-loaded polymer were made into the thigh muscle adjacent to the femoral artery ligations. The surgical incision was then closed with non-degradable sutures. As controls, femoral artery ligation surgery was performed on animals without any microgels or peptide treatment or with peptide in PBS injections into the subcutaneous tissue adjacent to femoral artery ligations. […]
A phagocytosis assay was performed in harvested microgels using Vybrant Phagocytosis Assay kit according to the manufacturer's protocol. Green fluorescence from internalized Escherichia coli particles in excised microgels and surrounding tissue was visualized through confocal imaging. The intensity of green fluorescence in each image was quantified using Image J (n=6 images per mouse, n=6 mice per treatment).

RAW 264.7 macrophages [2] = experiment: Gene expression by quantitative RT-PCR; format: cell-based, mouse; conditions: 75 mg/mL peptide, 72 h
Protocol: (§1) Cell Culture: RAW 264.7 macrophages (ATCC) were cultured in DMEM (Gibco) supplemented with 10% FBS and 1% penicillin/strepto-mycin. Mouse aortic endothelial cells (mAECs) were a generous gift from Dr. Ambra Pozzi at Vanderbilt University Medical Center. mAECs were cultured in EGM-2 Basal Media supplemented with BulletKit (Lonza, Allendale, N.J.) and 10 units/mLIFN-g (Sigma). RAW 264.7 mouse macrophage cells (Sigma) were cultured in DMEM with 10% FBS and 1% penicillin/streptomycin. For cell culture studies with peptides, 75 mg/mL of Ac-SDKP or C16 peptides was used. For inhibition studies, 5 mM of MMP-9 inhibitor-1 (CTK8G1150; AG-L-66085, Santa Cruz Biotechnology, Dallas, Tex.) or 5 mg/mL of LEAF Purified Mouse TNF-a antibody (BioLegend) was used.
Gene expression: mAECs or RAW 264.7 cells were seeded at a density of 3×10^5 cells/mL on TCPS with 75 mg/mL of Ac-SDKP, C16, or the combination of C16 and Ac-SDKP peptides. After 3 days, RNA was extracted from […] using Trizol reagent and RNA easy columns. After dissolving RNA in RNase-free water, the concentration and purity of isolated RNA was measured using TECAN plate reader Nanoquant (company info). […] 50 ng/well cDNA was then amplified using SYBR green Supermix and fluorescence signal was measured on a BioRAD real time PCR machine. […] Expression was calculated using the […] and normalized to GAPDH expression (n=8).

[3] = test system: mouse model of hind limb ischemia; experiment: Histological analysis of inflammation (H&E, F4/80 macrophage infiltration); format: in vivo, A/J mice; conditions: multiple 1 mL microgel injections
From the text: Mouse model of hind limb ischemia: Wild type A/J mice were used to develop a model of PAD as described previously, by ligating the femoral artery and vein at one ligation below the epigastric artery and a second ligation around the artery and vein at a distal location just proximal to the deep femoral branch. The femoral artery and vein were then cut between these two sutures. […] In order to control the hydrogel size considering the possibility that the hydrogel size may change peptide release and therefore inflammatory responses a single, 10 mL bulk injection or ten, 1 mL injections of peptide-loaded polymer were made into the thigh muscle adjacent to the femoral artery ligations. The surgical incision was then closed with non-degradable sutures. […]
Histological analysis of angiogenesis and inflammation: After sacrificing mice, ischemic muscle samples were prepared for histological analysis as described elsewhere. […] Immunohistochemical (IHC) staining to identify activated inflammatory cells by F4/80 expression was quantified by normalizing the total F4/80 positive area (indicated by brown staining) to the total cell number (determined by hema-toxylin nuclear staining) using Image J.

[4] = test system: mouse model of hind limb ischemia; experiment: Laser Doppler perfusion imaging (LDPI) of perfusion recovery; format: in vivo, A/J mice; conditions: peptide-loaded microgels, 14 day time course
Protocol: Mouse model of hind limb ischemia: Wild type A/J mice were used to develop a model of PAD as described previously, by ligating the femoral artery and vein at one ligation below the epigastric artery and a second ligation around the artery and vein at a distal location just proximal to the deep femoral branch. The femoral artery and vein were then cut between these two sutures. A 13% by weight solution of injectable polymers in H2O 2O was mixed with 75 mg Ac-SDKP, C16, or the combination of Ac-SDKP and C16 at 25° C. In order to control the hydrogel size considering the possibility that the hydrogel size may change peptide release and therefore inflammatory responses a single, 10 mL bulk injection or ten, 1 mL injections of peptide-loaded polymer were made into the thigh muscle adjacent to the femoral artery ligations. The surgical incision was then closed with non-degradable sutures. […]
LDPI: LDPI was performed on the footpad region of the hind limb of the mice using a Periscan PIM II device. […] The perfusion ratio was calculated by normalizing the average perfusion value of the ischemic footpad (right) to the average perfusion value of the control, un-operated footpad (left) using Image J (NIH).

[5] = test system: mouse aortic endothelial cells (mAECs); experiment: MMP-9 activity by zymography; format: cell-based; conditions: 72 h, peptides 75 mg/mL, MMP-9 inhibitors 5 mM, TNF-a antibodies 5 mg/mL
Protocol: as §1
MMP-9 activity: After 72 h culture in serum-free media, culture media from mAECs or RAW 264.7 cells (3×10^5 cells/mL, with/without peptides or TNF-a/MMP-9 inhibitors) was collected, concentrated, and analyzed by zymography, as described previously. Concentrated protein samples were incubated with non-reducing buffer at a ratio of 1:1. […] total protein per lane were loaded onto a 7.5% polyacrylamide gel containing 0.1%(w/v) gelatin (Sigma). Gels were washed in dH2O containing 3.3% (v/v) Triton X-100, followed by […] incubation in reaction buffer at 37 C. After incubation, gels were placed in fixative (30% methanol, 10% acetic acid, and 60% dH2O) for 1 h before staining with 4 parts Coomassie brilliant blue R-250 (Sigma) and 1 part methanol for 12 h. Gels were destained in 25% methanol for 1 h. The gelatinolytic activity of pro-MMP-9 was determined by densitometry of the 97 KDa white band on a blue background using Image J(n=4 per treatment). MMP-9 expression was then normalized to the expression from the no inhibitor, no peptide treated group.

[6] = test system: mouse aortic endothelial cells (mAECs); experiment: Gene expression by quantitative RT-PCR; format: cell-based; conditions: 75 mg/mL peptide, 72 h
Protocol: as §1
Gene expression: mAECs or RAW 264.7 cells were seeded at a density of 3×10^5 cells/mL on TCPS with 75 mg/mL of Ac-SDKP, C16, or the combination of C16 and Ac-SDKP peptides. After 3 days, RNA was extracted from […] using Trizol reagent and RNA easy columns. After dissolving RNA in RNase-free water, the concentration and purity of isolated RNA was measured using TECAN plate reader Nanoquant (company info). At least […] of RNA was reverse transcribed using iScriptReverse transcription Supermix for RT-qPCR on a BioRad thermocycler (company info). 50 ng/well cDNA was then amplified using SYBR green Supermix and fluorescence signal was measured on a BioRAD real time PCR machine. TGF-b1 forward: […], reverse: […]. NF-kb forward: […]-CACAGA, reverse: […]. TIMP1 forward: […], reverse: […]-CACA. FGF-1 forward: […], reverse: […]. FGF-2: MMP-9: […]-CAATCC, reverse: […]. MMP-2 forward: […], reverse: […]. TNF-a: forward: […], reverse: AGA-[…]. VEGF forward: […]-CACCA, reverse: […]. GAPDH forward: […], reverse: […]. TIMP-2 forward: […], reverse: CACGCG-[…]. Expression was calculated using the […] and normalized to GAPDH expression (n=8).

RAW 264.7 macrophages [7] = experiment: TNF-a ELISA of cell culture supernatant; format: cell-based, mouse; conditions: RAW 264.7, 72 h, peptides 75 mg/mL, TNF-a antibodies 5 mg/mL
Protocol: as §1
ELISA: To verify TNF-a inhibition with antibodies, an ELISA was performed using Mouse TNF-a ELISA MAXTM Deluxe (Biolegend) according to the supplier's protocol. Secreted TNF-a in RAW 264.7 cell culture supernatant was measured by reading absorbance at 450 nm using a TECAN M1000 plate reader and quantified against a standard curve (n=4 per treatment).

[8] = test system: mouse model of hind limb ischemia; experiment: Optical coherence tomography (Doppler and speckle-variance OCT) of blood vessels; format: in vivo, A/J mice; conditions: for vessel morphology (speckle-variance OCT volume scans of calf muscle): injectable microgels
Protocol: (§2) Mouse model of hind limb ischemia: Wild type A/J mice were used to develop a model of PAD as described previously, by ligating the femoral artery and vein at one ligation below the epigastric artery and a second ligation around the artery and vein at a distal location just proximal to the deep femoral branch. The femoral artery and vein were then cut between these two sutures. A 13% by weight solution of injectable polymers in H2O 2O was mixed with 75 mg Ac-SDKP, C16, or the combination of Ac-SDKP and C16 at 25° C. In order to control the hydrogel size considering the possibility that the hydrogel size may change peptide release and therefore inflammatory responses a single, 10 mL bulk injection or ten, 1 mL injections of peptide-loaded polymer were made into the thigh muscle adjacent to the femoral artery ligations. The surgical incision was then closed with non-degradable sutures. As controls, femoral artery ligation surgery was performed on animals without any microgels or peptide treatment or with peptide in PBS injections into the subcutaneous tissue adjacent to femoral artery ligations. The left hind limb (unoperated) was also used as a surgical control.
Optical coherence tomography: Doppler OCT and speckle-variance OCT were used to non-invasively image blood vessels in the ischemic gastrocnemius muscle of mice on days 1 and 13 after femoral artery ligation, as previously described. […] Doppler OCT cross-sectional scans (B-scans) were used to quantify blood flow changes over time in the hind limb, while volume intensity projections from speckle-variance OCT image volumes (C-scans) presented vessel morphology differences between groups. […] Six Doppler OCT B-scans (4 mm, 800 A-scans, Doppler number of 9) were performed per mouse at each time point and perfusion was quantified by calculating the ratio of the number of blood vessel pixels per scan over the total imaged area per scan (n=6 mice per time point).

[9] = test system: mouse aortic endothelial cells (mAECs); experiment: Tubulogenesis on growth factor reduced Matrigel; format: cell-based; conditions: mAECs on Matrigel for 6 h
Protocol: as §1
Tubulogenesis: mAECs (3×10^5 cells/mL) were cultured on growth factor reduced Matrigel ([…], BD Biosciences) for 6 h before imaging for tube formation using a Nikon Eclipse Ti microscope (n=4 per treatment).

[10] = test system: mouse model of hind limb ischemia; experiment: Fluorescence microangiography (vessel perfusion capacity); format: in vivo, A/J mice
Protocol: as §2
Angiogenesis and phagocytosis assays: Fourteen days after femoral artery ligation, mice were sacrificed and tissue and microgels were harvested for analysis. Immediately before sacrificing the mice, functional fluorescence micro-angiography was performed to visualize angiogenesis in and around peptide-loaded microgels, as described previously. As a result of fluorescence microangiography, only the functional capillaries with a perfusion capacity, including those around injected micro-gels, show red fluorescence in the mouse body. Excised tissue from the site of microgel injections was imaged using an Olympus FV100 confocal microscope. For quantification of vessel perfusion capacity, the red fluorescence intensity was quantified using Image J software (n=6 images per mouse, n=6 mice per treatment).

RAW 264.7 macrophages [11] = experiment: MMP-9 activity by zymography; format: cell-based, mouse; conditions: RAW 264.7, 72 h, regardless of TNF-a inhibition
Protocol: as §1
MMP-9 activity: After 72 h culture in serum-free media, culture media from mAECs or RAW 264.7 cells (3×10^5 cells/mL, with/without peptides or TNF-a/MMP-9 inhibitors) was collected, concentrated, and analyzed by zymography, as described previously. Concentrated protein samples were incubated with non-reducing buffer at a ratio of 1:1. […] total protein per lane were loaded onto a 7.5% polyacrylamide gel containing 0.1%(w/v) gelatin (Sigma). […] The gelatinolytic activity of pro-MMP-9 was determined by densitometry of the 97 KDa white band on a blue background using Image J(n=4 per treatment). […]

Protocol for iPSC-CMs: The encapsulation study was performed by mixing cells with polymer solution and gelled at 37° C. After two weeks, live cells were stained by calcein AM (green fluorescence) (g).

Compound | phagocytic activity in tissue around microgels [1] | TNF-a expression in comparison to no peptide treatment (RAW 264.7 macrophages [2]) | inflammatory / macrophage infiltration in muscle tissue ([3]; day 14, vs no peptide) | perfusion recovery (LDPI) [4] | MMP-9 activity in endothelial cells (zymography) [5] | TNF-a expression in comparison to no peptide treatment [6] | MMP-9 expression, decrease compared to no peptide treatment ([6]; normalized to GAPDH) | secreted TNF-a (ELISA) (RAW 264.7 macrophages [7]) | vessel morphology (speckle-variance OCT volume scans of calf muscle) [8] | tubulogenesis (tube formation) [9] | angiogenesis in comparison to microgels without peptide loading ([10]; peptide-loaded microgels, day 14) | macrophage infiltration, increase compared to no peptide treatment ([3]; day 14) | higher perfusion compared to microgels without peptides (LDPI) ([4]; ischemic/control foot ratio) [%] | MMP-9 activity compared to macrophages without peptide treatment (RAW 264.7 macrophages [11]) | TIMP-1 expression [6] | increase in the total area of vessels (Doppler OCT) compared to Ac-SDKP or no treatment ([8]; implantable scaffolds, day 1 to day 13) | angiogenesis compared to PBS alone ([10]; PBS injections of peptide, no microgel) | angiogenesis / perfusion capacity increase vs. microgels without peptides ([10]; microgel-mediated delivery, day 14) [fold] | viability of encapsulated iPSC-CMs (calcein AM) (iPSC-CMs)
N-acetyl-Ser-Asp-Lys-Pro (Ac-SDKP) [anti-inflammatory peptide] | reduced both responses | decreased TNF-a expression | further decreased inflammatory infiltration | did not increase perfusion | diminished | decreased TNF-a expression | over 50% | secreted the least amounts of TNF-a | few blood vessels with limited branching | diminished | reduced both responses |  |  |  |  |  |  |  | 
KAFDITYVRLKF [C16, pro-angiogenic peptide] | higher phagocytic activity than no peptide controls | increased TNF-a expression |  |  | augmented MMP-9 activity and tubulogenesis | increased TNF-a expression |  |  | many vessels with a high degree of branching | augmented MMP-9 activity and tubulogenesis |  | two fold | 29 | significantly higher levels of MMP-9 activity | decreased TIMP-1 expression significantly | greater than two fold | Slightly increased angiogenesis | ~1.5 | 
CCN(CC)Cc1cc(C)c(N(Cc2ccccc2)S(=O)(=O)c2ccc(OC)cc2)c(C(=O)NO)c1 [MMP-9 inhibitor, reference compound] |  |  |  |  | attenuation of MMP-9 activity |  |  |  |  | significantly reduced |  |  |  |  |  |  |  |  | 
polyethylene glycol-co-poly-8-caprolactone [PEG-PCL] |  |  |  |  |  |  |  |  |  |  |  |  |  |  |  |  |  |  | maintained their viability
